From patent publication US11160796B2, “Anti-androgens for the treatment of non-metastatic castration-resistant prostate cancer” (priority 2017, dated 2021)

Assays:
[1] = tested on: castration-resistant prostate cancer (CRPC); test: Phase II clinical trial of apalutamide 240 mg daily in CRPC; format: in vivo, human; settings: for 12-week PSA declines of >50% or more from baseline (% of patients): preliminary
From the text: The primary objective was to assess antitumor activity and PSA kinetics as defined by the Prostate Cancer Clinical Trials Working Group (PCWG2) criteria. […] The median time to PSA progression was not reached for the TN cohort during the preliminary 12-week period, and was 16 weeks in the PA cohort.
The median time to PSA progression was not reached in this observed time period.

LNCaP/AR cells = test: In vitro model of CRPC (AR-over-expressing prostate cancer cells); format: cell-based
[2] = target: T1, human cytochrome P450 isoform CYP2C8 (Homo sapiens, UniProt P10632); test: Cytochrome P450 inhibition: CYP2C8; format: in vitro ADME
T1 sequence (P10632 1-490): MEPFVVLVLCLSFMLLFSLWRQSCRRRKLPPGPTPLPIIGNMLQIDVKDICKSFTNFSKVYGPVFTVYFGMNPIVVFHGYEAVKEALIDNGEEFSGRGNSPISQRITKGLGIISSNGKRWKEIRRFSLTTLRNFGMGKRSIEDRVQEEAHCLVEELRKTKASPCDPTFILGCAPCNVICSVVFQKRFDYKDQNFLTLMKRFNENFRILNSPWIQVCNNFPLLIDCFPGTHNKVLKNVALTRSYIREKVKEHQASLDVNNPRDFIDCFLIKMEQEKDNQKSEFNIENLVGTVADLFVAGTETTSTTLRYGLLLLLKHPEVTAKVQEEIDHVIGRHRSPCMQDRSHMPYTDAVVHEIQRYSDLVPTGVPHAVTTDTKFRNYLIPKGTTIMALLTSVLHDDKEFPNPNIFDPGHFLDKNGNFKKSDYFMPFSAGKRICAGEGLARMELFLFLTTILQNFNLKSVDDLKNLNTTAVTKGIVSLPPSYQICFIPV

[3] = Physicochemical description (ionization, solubility)
From the text: The Chemical name is (4-[7-(6-Cyano-5-trifluoromethylpyridin-3-yl)-8-oxo-6-thioxo-5,7-diazaspiro[3.4]oct-5-yl]-2-fluoro-N-methylbenzamide). Apalutamide is a white to slightly yellow powder.

BCRP/OATP1B1 = test: Drug-drug interaction study, cocktail approach: rosuvastatin; parameters: species or system human; settings: in vivo
[4] = Bacterial reverse mutation (Ames) assay
[5] = In vitro chromosome aberration test; format: cell-based
[6] = tested on: BCRP, OATP1B1, and OATP1B3; settings: not told
Plasma protein binding = settings: plasma
CYP2B6 and CYP2C8 = test: In vitro CYP inhibition: CYP2B6 and CYP2C8
P-gp = P-gp (Homo sapiens, UniProt P08183); test: In vitro transporter substrate assessment: P-gp
P-gp, sequence (P08183 whole entry): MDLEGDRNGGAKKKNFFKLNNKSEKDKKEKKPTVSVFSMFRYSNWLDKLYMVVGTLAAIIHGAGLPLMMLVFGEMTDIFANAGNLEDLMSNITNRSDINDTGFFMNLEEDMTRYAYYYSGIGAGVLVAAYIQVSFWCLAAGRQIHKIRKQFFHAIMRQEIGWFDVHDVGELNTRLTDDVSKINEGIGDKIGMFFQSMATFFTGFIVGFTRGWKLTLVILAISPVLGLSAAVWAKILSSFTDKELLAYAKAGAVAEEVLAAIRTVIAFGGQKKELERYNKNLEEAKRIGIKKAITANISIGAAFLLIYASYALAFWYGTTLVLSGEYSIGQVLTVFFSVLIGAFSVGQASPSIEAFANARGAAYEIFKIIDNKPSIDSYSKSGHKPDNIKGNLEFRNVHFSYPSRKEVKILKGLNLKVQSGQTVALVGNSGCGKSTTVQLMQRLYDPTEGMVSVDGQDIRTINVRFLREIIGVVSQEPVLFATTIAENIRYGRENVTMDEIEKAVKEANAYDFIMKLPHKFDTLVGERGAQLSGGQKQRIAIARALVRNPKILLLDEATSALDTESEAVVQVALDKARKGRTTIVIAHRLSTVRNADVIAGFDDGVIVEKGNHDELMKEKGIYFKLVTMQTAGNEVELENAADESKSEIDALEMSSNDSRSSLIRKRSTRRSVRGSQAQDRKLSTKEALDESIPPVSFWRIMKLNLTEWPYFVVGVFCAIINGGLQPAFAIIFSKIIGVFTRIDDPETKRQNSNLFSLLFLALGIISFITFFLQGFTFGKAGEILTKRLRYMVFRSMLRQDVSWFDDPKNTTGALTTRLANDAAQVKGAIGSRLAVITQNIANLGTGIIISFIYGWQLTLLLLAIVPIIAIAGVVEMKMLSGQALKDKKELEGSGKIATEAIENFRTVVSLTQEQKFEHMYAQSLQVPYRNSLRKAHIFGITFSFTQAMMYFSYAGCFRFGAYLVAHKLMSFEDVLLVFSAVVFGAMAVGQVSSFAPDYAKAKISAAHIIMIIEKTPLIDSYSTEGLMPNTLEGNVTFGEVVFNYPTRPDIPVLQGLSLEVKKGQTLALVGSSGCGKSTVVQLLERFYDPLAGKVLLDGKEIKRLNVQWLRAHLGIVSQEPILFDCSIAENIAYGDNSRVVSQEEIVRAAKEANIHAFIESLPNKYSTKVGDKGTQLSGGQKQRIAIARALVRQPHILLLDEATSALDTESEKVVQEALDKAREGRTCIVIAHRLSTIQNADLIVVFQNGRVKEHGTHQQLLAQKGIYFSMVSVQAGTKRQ

## CNC(=O)c1ccc(N2C(=S)N(c3cnc(C#N)c(C(F)(F)F)c3)C(=O)C23CCC3)cc1F [apalutamide, 4-[7-(6-cyano-5-trifluoromethylpyridin-3-yl)-8-oxo-6-thioxo-5,7-diazaspiro[3.4]oct-5-yl]-2-fluoro-N-methylbenzamide]
[1]; PA cohort
  median time to PSA progression: 16 weeks
[1]; PA cohort (progressed after abiraterone acetate plus prednisone), 240 mg oral daily
  12-week PSA declines of >50% or more from baseline (% of patients): 29%
[1]; TN cohort (treatment-naive metastatic CRPC), 240 mg oral daily
  12-week PSA declines of >50% or more from baseline (% of patients): 88%
[1]; TN cohort, preliminary 12-week period
  median time to PSA progression: not reached
[1]; TN patients with measurable disease at baseline
  objective response rate (by RECIST): 63%
[1]; non-metastatic CRPC, 240 mg oral daily, 12 weeks
  patients with >50% decline in PSA as compared to baseline: 91%
[1]; non-metastatic CRPC, 24 weeks
  patients with >50% decline in PSA: 91%
  patients with >90% decline in PSA: 55%
[1]; non-metastatic CRPC, observed time period
  median time to PSA progression: not reached
LNCaP/AR cells; LNCaP/AR cells
  agonist properties in an in vitro model of CRPC: no significant agonist properties
LNCaP/AR cells; in vitro
  Gene transcription of the androgen-driven genes, PSA and TMPRSS2: inhibited
[2]
  IC50: 13.9 µM
[3]; aqueous media over a wide range of pH values
  solubility: practically insoluble
[3]; relevant physiological pH condition
  ionization: not ionizable
BCRP/OATP1B1
  BCRP/OATP1B1 inducer clinically: weak and weak inducer
  impact on Cmax of rosuvastatin: no impact
[4]
  mutations in the bacterial reverse mutation (Ames) assay: did not induce mutations
[5]
  genotoxicity, in vitro chromosome aberration: not genotoxic
[6]
  substrate for BCRP, OATP1B1, and OATP1B3: not BCRP, OATP1B1, and OATP1B3
Plasma protein binding
  fraction unbound: 0.04
CYP2B6 and CYP2C8
  inhibition of CYP2B6 and CYP2C8: moderate inhibitors
P-gp
  substrate for P-gp: substrates for P-gp
